Test results taken from the supplement of paper PMC11061612.

Assays:
[1] = system: C-4-I (Cervical Carcinoma); test: Bliss excess, mean over the matrix (fraction); higher = more synergy
Method in brief: (§1)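 Cell lines in DMEM/F12 or RPMI with 10% FBS were plated in 1536-well plates, held 24 hours at 37°C, 5% CO2, then given two-drug dose matrices for 72 hours (DMSO typically 0.2%). Viability was read by CellTiter-Glo 2.0 luminescence and scaled as inhibition from 0 (vehicle wells) to 1 (blank wells). Combination Emax is the second-highest inhibition in the matrix; Bliss excess is observed combination effect minus expected EA + EB − EA·EB, EA and EB being single-agent effects.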

[2] = system: HGC-27 (Gastric Carcinoma); test: as above
Method in brief: as §1

[3] = system: HOP-62 (Lung Adenocarcinoma); test: as above
Method in brief: as §1

[4] = system: JVM-3 (B-Cell Non-Hodgkin's Lymphoma); test: as above
Method in brief: as §1

[5] = system: KMOE-2 (Acute Myeloid Leukemia); test: as above
Method in brief: as §1

[6] = system: NEC8 (Other Solid Carcinomas); test: as above
Method in brief: as §1

[7] = system: NUGC-3 (Gastric Carcinoma); test: as above
Method in brief: as §1

[8] = system: OE19 (Esophageal Adenocarcinoma); test: as above
Method in brief: as §1

[9] = system: OSC-20 (Oral Cavity Carcinoma); test: as above
Method in brief: as §1

[10] = system: OVCAR-4 (Ovarian Carcinoma); test: as above
Method in brief: as §1

[11] = system: SCC-15 (Oral Cavity Carcinoma); test: as above
Method in brief: as §1

[12] = system: TE-1 (Esophageal Squamous Cell Carcinoma); test: as above
Method in brief: as §1

[13] = system: VA-ES-BJ (Other Solid Carcinomas); test: as above
Method in brief: as §1

[14] = system: HGC-27 (Gastric Carcinoma); test: combination Emax (second highest fraction inhibited in the dose matrix, 72 h); higher = more inhibition; extreme values may be limits of the assay
Method in brief: as §1

[15] = system: HOP-62 (Lung Adenocarcinoma); test: as above
Method in brief: as §1

[16] = system: HSC-4 (Oral Cavity Carcinoma); test: as above
Method in brief: as §1

[17] = system: OE19 (Esophageal Adenocarcinoma); test: as above
Method in brief: as §1

[18] = system: OVCAR-4 (Ovarian Carcinoma); test: as above
Method in brief: as §1

[19] = system: PWR-1E (Non-Cancerous); test: as above
Method in brief: as §1

[20] = system: TE-1 (Esophageal Squamous Cell Carcinoma); test: as above
Method in brief: as §1
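For Bliss excess, mean over the matrix in this document: after 72 h of two-drug dosing.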

Row | SMILES | Bliss excess [1] | Bliss excess [2] | Bliss excess [3] | Bliss excess [4] | Bliss excess [5] | Bliss excess [6] | Bliss excess [7] | Bliss excess [8] | Bliss excess [9] | Bliss excess [10] | Bliss excess [11] | Bliss excess [12] | Bliss excess [13] | combination Emax [14] | combination Emax [15] | combination Emax [16] | combination Emax [17] | combination Emax [18] | combination Emax [19] | combination Emax [20]
1 | CN(CCO)CC[C@H](CSc1ccccc1)Nc1ccc(S(=O)(=O)NC(=O)c2ccc(N3CCC([C@@H](O)c4ccccc4-c4ccc(Cl)cc4)CC3)cc2)cc1S(=O)(=O)C(F)(F)F [AZD4320] + C=CCn1c(=O)c2cnc(Nc3ccc(N4CCN(C)CC4)cc3)nc2n1-c1cccc(C(C)(C)O)n1 [AZD1775] (first compound max 1 µM, partner max 1 µM) | 0.0656 | -0.018 | -0.0356 | -0.101 | 0.0656 | 0.0272 | -0.0346 | 0.0072 | -0.0933 | -0.0068 | 0.0336 | -0.0034 | 0.006 | 0.543 | 0.458 | 0.585 | 0.33 | 0.662 | 0.338 | 0.824
2 | Cc1cc2ncnn2cc1Nc1ncc2c(n1)n(C1CCOCC1)c(=O)n2C [AZD7648] + C=CCn1c(=O)c2cnc(Nc3ccc(N4CCN(C)CC4)cc3)nc2n1-c1cccc(C(C)(C)O)n1 [AZD1775] (first compound max 10 µM, partner max 1 µM) | -0.015 | -0.012 | -0.0093 | -0.0686 | -0.0329 | 0.0004 | 0.0165 | -0.0099 | -0.0252 | -0.0108 | 0.0938 | -0.0045 | -0.008 | 0.771 | 0.241 | 0.41 | 0.465 | 0.607 | 0.562 | 0.621
3 | CN(CCO)CC[C@H](CSc1ccccc1)Nc1ccc(S(=O)(=O)NC(=O)c2ccc(N3CCC([C@@H](O)c4ccccc4-c4ccc(Cl)cc4)CC3)cc2)cc1S(=O)(=O)C(F)(F)F [AZD4320] + Cc1cc2ncnn2cc1Nc1ncc2c(n1)n(C1CCOCC1)c(=O)n2C [AZD7648] (first compound max 1 µM, 7x7, partner max 10 µM) | -0.0082 | -0.0473 | -0.0479 | -0.0214 | -0.0058 | 0.0104 | -0.0234 | -0.0219 | -0.0548 | -0.0412 | -0.0152 | -0.0443 | -0.0364 | 0.473 | 0.167 | 0.129 | 0.415 | 0.127 | 0.0822 | 0.38
4 | Cc1cc2ncnn2cc1Nc1ncc2c(n1)n(C1CCOCC1)c(=O)n2C [AZD7648] + CN(C)CCCOc1ccc(-c2ccc3ncc4c(c3c2)n(C2CCOCC2)c(=O)n4C)cn1 [AZD0156] (first compound max 10 µM, 7x7, partner max 1 µM) | 0.0099 | 0.0101 | -0.0173 | -0.0297 | 0.0226 | -0.0007 | -0.0262 | 0.0583 | -0.0082 | -0.0126 | 0.0215 | -0.051 | 0.0248 | 0.611 | 0.144 | 0.112 | 0.363 | 0.185 | 0.363 | 0.19
5 | Cc1cc2ncnn2cc1Nc1ncc2c(n1)n(C1CCOCC1)c(=O)n2C [AZD7648] + O=C(c1cc(Cc2n[nH]c(=O)c3ccccc23)ccc1F)N1CCN(C(=O)C2CC2)CC1 [Olaparib] (first compound max 10 µM, 7x7, partner max 10 µM) | 0.005 | -0.0092 | -0.0528 | -0.0053 | -0.0066 | 0.0327 | -0.0175 | -0.0097 | 0.0194 | -0.0214 | -0.0408 | -0.0298 | -0.0416 | 0.629 | 0.145 | 0.26 | 0.289 | 0.133 | 0.28 | 0.15
6 | CN(CCO)CC[C@H](CSc1ccccc1)Nc1ccc(S(=O)(=O)NC(=O)c2ccc(N3CCC([C@@H](O)c4ccccc4-c4ccc(Cl)cc4)CC3)cc2)cc1S(=O)(=O)C(F)(F)F [AZD4320] + C[C@@H]1COCCN1C2=NC(=NC(=C2)C3(CC3)[S@](=N)(=O)C)C4=C5C=CNC5=NC=C4 [AZD6738] (first compound max 1 µM, 7x7, partner max 10 µM) | 0.0036 | -0.0321 | -0.0483 | -0.027 | -0.0399 | -0.0089 | -0.0445 | -0.0789 | -0.0694 | -0.0392 | 0.0475 | -0.004 | -0.012 | 0.812 | 0.599 | 0.927 | 0.726 | 0.794 | 0.971 | 0.742
7 | C[C@@H](c1ccc2nccn2c1)n1nnc2ncc(-c3cnn(C)c3)nc21 [Savolitinib] + Cc1c2c(nn1C)CSCc1cc(n(C)n1)CSc1cc(c3ccccc3c1)OCCCc1c(C(=O)O)n(C)c3c-2c(Cl)ccc13 [AZD5991] (first compound max 1 µM, 7x7, partner max 1 µM) | -0.111 | 0.0154 | -0.0754 |  | -0.0312 | -0.0093 | -0.0379 | -0.093 | -0.0239 | -0.0713 | -0.0222 | -0.0748 | -0.0299 | 0.238 | 0.154 | 0.236 | 0.235 | 0.138 | 0.186 | 0.162
8 | CN(CCO)CC[C@H](CSc1ccccc1)Nc1ccc(S(=O)(=O)NC(=O)c2ccc(N3CCC([C@@H](O)c4ccccc4-c4ccc(Cl)cc4)CC3)cc2)cc1S(=O)(=O)C(F)(F)F [AZD4320] + C1CN(CCC1(C(=O)N[C@@H](CCO)C2=CC=C(C=C2)Cl)N)C3=NC=NC4=C3C=CN4 [Capivasertib] (first compound max 1 µM, 7x7, partner max 3 µM) | -0.0101 | -0.0252 | -0.0414 | -0.0162 | -0.0435 | -0.0356 | -0.039 | -0.0479 | -0.0513 | -0.0417 | -0.0606 | -0.0292 | -0.0376 | 0.775 | 0.115 | 0.32 | 0.333 | 0.0826 | 0.252 | 0.369
9 | CN(CCO)CC[C@H](CSc1ccccc1)Nc1ccc(S(=O)(=O)NC(=O)c2ccc(N3CCC([C@@H](O)c4ccccc4-c4ccc(Cl)cc4)CC3)cc2)cc1S(=O)(=O)C(F)(F)F [AZD4320] + CCN(CCO)CCCOc1ccc2c(Nc3cc(CC(=O)Nc4cccc(F)c4)[nH]n3)ncnc2c1 [AZD2811] (first compound max 1 µM, 7x7, partner max 1 µM) | 0.0557 | 0.032 | -0.0197 | 0.165 | 0.0171 | -0.0138 | 0.0077 | -0.0349 | -0.062 | 0.045 | 0.0101 | 0.0794 | -0.0259 | 0.96 | 0.359 | 0.517 | 0.854 | 0.389 | 0.843 | 0.655
10 | COc1cc2ncnc(Nc3ccc(F)c(Cl)c3)c2cc1OCCCN1CCOCC1 [Gefitinib] + CC(C)n1c(=O)n(C)c2cnc3cc(F)c(-c4ccc(OCCCN5CCCCC5)nc4)cc3c21 [AZD1390] (first compound max 10 µM, 7x7, partner max 0.3 µM) | -0.042 | -0.0261 | -0.0751 |  | -0.0589 | -0.0278 | -0.0515 | -0.0181 | -0.0691 | -0.0561 | -0.0571 | -0.0471 | -0.0513 | 0.238 | 0.0723 | 0.0642 | 0.943 | 0.0866 | 0.205 | 0.368
11 | CN(CCO)CC[C@H](CSc1ccccc1)Nc1ccc(S(=O)(=O)NC(=O)c2ccc(N3CCC([C@@H](O)c4ccccc4-c4ccc(Cl)cc4)CC3)cc2)cc1S(=O)(=O)C(F)(F)F [AZD4320] + Cn1cnc2c(F)c(Nc3ccc(Br)cc3Cl)c(C(=O)NOCCO)cc21 [Selumetinib] (first compound max 1 µM, 7x7, partner max 3 µM) | 0.135 | 0.0579 | -0.0508 | -0.0225 | 0.0415 | 0.021 | 0.104 | -0.0202 | 0.0488 | 0.0108 | 0.042 | 0.0819 |  | 0.381 | 0.536 | 0.797 | 0.314 | 0.381 | 0.601 | 0.554
12 | C[C@@H](c1ccc2nccn2c1)n1nnc2ncc(-c3cnn(C)c3)nc21 [Savolitinib] + CC1(C)CCC(CN2CCN(c3ccc(C(=O)NS(=O)(=O)c4ccc(NCC5CCOCC5)c([N+](=O)[O-])c4)c(Oc4cnc5[nH]ccc5c4)c3)CC2)=C(c2ccc(Cl)cc2)C1 [Venetoclax] (first compound max 1 µM, 7x7, partner max 1 µM) | -0.0585 | -0.0158 | -0.0939 |  | -0.0414 | -0.0236 | -0.0666 | -0.0377 | -0.0521 | -0.0791 | -0.0613 | -0.0546 | -0.0433 | 0.147 | 0.0599 | 0 | 0.166 | 0.0979 | 0.0879 | 0.0986
13 | Cc1nc(Nc2ncc(C(=O)Nc3c(C)cccc3Cl)s2)cc(N2CCN(CCO)CC2)n1 [Dasatinib] + CC(=O)Nc1cccc(-n2c(=O)n(C3CC3)c(=O)c3c(Nc4ccc(I)cc4F)n(C)c(=O)c(C)c32)c1 [Trametinib] (first compound max 2 µM, 7x7, partner max 1 µM) | 0.0328 | -0.0355 | -0.0824 |  | -0.0125 | -0.0277 | 0.0374 | -0.063 | -0.0148 | 0.0286 | -0.0213 | -0.0067 | -0.033 | 0.726 | 0.749 | 0.423 | 0.797 | 0.62 | 0.897 | 0.791
